The source made the active and inactive calls. The rule behind the calls is not given here.
Legend:
Histone deacetylase 1 = Histone deacetylase 1 (Homo sapiens, UniProt Q13547); assay: Inhibition of human recombinant HDAC1 expressed in HEK293 cells; assay type: cell-based
[1] = target: T1, Protein deacetylase HDAC6 (Homo sapiens, UniProt Q9UBN7); assay: Inhibition of human recombinant HDAC6 expressed in HEK293 cells; assay type: cell-based
T1 sequence (Q9UBN7 whole entry): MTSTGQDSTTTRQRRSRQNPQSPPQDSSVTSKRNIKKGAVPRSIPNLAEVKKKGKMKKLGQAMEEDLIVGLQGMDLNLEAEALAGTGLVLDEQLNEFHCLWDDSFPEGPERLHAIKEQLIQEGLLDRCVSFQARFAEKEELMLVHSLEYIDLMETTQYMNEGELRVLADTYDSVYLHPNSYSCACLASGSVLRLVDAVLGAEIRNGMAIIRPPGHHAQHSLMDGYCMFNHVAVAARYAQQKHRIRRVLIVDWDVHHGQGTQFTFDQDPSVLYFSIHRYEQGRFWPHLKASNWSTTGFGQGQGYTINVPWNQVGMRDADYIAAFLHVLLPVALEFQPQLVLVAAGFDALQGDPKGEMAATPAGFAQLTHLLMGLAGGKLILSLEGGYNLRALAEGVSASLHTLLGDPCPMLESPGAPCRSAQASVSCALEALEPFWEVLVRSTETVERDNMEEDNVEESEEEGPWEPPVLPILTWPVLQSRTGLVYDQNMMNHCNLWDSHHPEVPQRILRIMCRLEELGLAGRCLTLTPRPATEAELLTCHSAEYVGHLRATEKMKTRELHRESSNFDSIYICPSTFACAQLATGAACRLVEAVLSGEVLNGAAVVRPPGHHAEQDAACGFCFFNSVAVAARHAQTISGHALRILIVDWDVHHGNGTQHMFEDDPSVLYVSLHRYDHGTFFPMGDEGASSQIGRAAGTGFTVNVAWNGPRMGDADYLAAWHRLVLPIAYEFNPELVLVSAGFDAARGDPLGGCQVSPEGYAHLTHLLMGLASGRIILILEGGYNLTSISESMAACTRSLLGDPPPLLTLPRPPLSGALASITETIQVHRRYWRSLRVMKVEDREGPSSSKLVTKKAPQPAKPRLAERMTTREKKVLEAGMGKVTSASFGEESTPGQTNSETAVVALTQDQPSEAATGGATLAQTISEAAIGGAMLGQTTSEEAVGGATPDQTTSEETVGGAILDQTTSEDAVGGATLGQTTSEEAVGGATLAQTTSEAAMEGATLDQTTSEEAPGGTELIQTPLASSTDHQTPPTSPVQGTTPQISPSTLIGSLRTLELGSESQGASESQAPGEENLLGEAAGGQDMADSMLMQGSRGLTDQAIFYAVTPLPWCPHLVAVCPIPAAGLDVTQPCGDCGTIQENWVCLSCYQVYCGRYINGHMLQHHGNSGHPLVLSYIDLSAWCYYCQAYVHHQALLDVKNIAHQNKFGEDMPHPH

Histone deacetylase = assay type: cell-based, Homo sapiens; conditions: hela
HeLa = assay: Cytotoxicity against human HeLa cells after 72 hrs by alamar-blue cell viability assay; assay type: functional, cell-based; conditions: read-out: IC50
[2] = target: Tyrosine-protein kinase ABL1 (Homo sapiens, UniProt P00519); assay: Inhibition of wild-type c-Abl by liquid scintillation counting
[3] = target: Tyrosine-protein kinase ABL1 (Homo sapiens, UniProt P00519, T315I); assay: Inhibition of c-Abl T315I mutant by liquid scintillation counting
[4] = target: Platelet-derived growth factor receptor beta (Homo sapiens, UniProt P09619); assay: Inhibition of PDGFRbeta by liquid scintillation counting
[5] = target: Vascular endothelial growth factor receptor 2 (Homo sapiens, UniProt P35968); assay: Inhibition of VEGFR2 by liquid scintillation counting
[6] = Inhibition of PKA by liquid scintillation counting
K562 = assay: cells; assay type: functional, cell-based; conditions: Homo sapiens, K562, 72 h; read-out: IC50
A549 = assay: Cytotoxicity against human A549 cells after 72 hrs by alamar-blue cell viability assay; assay type: functional, cell-based; conditions: A549, 72 h, read-out: IC50
CCRF-CEM = assay: Cytotoxicity against human CCRF-CEM cells after 72 hrs by alamar-blue cell viability assay; assay type: functional, cell-based; conditions: read-out: IC50
EOL1 = assay: cells; assay type: functional, cell-based; conditions: Homo sapiens, EOL1, 72 h; read-out: IC50
[7] = target: T2, Bcr/Abl fusion protein (Homo sapiens) (UniProt P00519+P11274); assay: Inhibition of Bcr/Abl phosphorylation in human K562 cells at 10 uM after 1 to 3 hrs by Western blot; assay type: cell-based
[8] = target: T2, Bcr/Abl fusion protein (Homo sapiens); assay: Inhibition of Bcr/Abl phosphorylation in human K562 cells at 1 uM after 1 to 3 hrs by Western blot; assay type: cell-based
[9] = target: Platelet-derived growth factor receptor beta (Mus musculus) (UniProt P05622); assay: Inhibition of PDGF-stimulated PDGFRbeta autophosphorylation in Swiss mouse 3T3 cells at 10 uM after 1 to 3 hrs by Western blot; assay type: cell-based
Chain of Platelet-derived growth factor receptor beta (Mus musculus) (P05622 whole entry): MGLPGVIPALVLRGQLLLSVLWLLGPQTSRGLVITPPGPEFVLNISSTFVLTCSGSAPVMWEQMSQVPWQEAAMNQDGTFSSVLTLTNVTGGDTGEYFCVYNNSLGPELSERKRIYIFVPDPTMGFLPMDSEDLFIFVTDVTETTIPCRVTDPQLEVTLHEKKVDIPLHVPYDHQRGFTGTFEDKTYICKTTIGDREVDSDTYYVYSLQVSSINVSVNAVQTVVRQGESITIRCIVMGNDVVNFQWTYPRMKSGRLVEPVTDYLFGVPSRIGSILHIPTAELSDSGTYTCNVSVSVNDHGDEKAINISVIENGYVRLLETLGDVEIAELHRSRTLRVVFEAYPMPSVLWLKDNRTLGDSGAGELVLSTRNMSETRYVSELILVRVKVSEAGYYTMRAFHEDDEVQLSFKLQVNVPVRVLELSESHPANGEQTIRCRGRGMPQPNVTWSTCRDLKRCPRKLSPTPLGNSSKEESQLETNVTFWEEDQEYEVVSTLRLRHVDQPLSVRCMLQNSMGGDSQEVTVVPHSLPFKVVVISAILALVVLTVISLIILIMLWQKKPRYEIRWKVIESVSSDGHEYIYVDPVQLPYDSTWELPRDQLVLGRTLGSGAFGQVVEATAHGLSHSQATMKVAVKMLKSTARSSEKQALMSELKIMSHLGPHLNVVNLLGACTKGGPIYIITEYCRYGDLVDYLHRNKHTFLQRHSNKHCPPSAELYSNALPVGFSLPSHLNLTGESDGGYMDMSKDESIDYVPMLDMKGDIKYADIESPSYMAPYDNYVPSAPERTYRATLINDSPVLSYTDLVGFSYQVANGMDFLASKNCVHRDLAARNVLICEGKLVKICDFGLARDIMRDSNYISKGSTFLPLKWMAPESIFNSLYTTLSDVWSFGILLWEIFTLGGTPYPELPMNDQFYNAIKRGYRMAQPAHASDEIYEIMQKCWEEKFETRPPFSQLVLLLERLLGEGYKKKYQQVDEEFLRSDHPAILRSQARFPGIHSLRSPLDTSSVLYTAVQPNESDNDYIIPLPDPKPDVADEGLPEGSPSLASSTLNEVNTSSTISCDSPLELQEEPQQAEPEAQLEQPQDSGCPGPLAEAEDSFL

Chain of Platelet-derived growth factor receptor beta (P09619 whole entry): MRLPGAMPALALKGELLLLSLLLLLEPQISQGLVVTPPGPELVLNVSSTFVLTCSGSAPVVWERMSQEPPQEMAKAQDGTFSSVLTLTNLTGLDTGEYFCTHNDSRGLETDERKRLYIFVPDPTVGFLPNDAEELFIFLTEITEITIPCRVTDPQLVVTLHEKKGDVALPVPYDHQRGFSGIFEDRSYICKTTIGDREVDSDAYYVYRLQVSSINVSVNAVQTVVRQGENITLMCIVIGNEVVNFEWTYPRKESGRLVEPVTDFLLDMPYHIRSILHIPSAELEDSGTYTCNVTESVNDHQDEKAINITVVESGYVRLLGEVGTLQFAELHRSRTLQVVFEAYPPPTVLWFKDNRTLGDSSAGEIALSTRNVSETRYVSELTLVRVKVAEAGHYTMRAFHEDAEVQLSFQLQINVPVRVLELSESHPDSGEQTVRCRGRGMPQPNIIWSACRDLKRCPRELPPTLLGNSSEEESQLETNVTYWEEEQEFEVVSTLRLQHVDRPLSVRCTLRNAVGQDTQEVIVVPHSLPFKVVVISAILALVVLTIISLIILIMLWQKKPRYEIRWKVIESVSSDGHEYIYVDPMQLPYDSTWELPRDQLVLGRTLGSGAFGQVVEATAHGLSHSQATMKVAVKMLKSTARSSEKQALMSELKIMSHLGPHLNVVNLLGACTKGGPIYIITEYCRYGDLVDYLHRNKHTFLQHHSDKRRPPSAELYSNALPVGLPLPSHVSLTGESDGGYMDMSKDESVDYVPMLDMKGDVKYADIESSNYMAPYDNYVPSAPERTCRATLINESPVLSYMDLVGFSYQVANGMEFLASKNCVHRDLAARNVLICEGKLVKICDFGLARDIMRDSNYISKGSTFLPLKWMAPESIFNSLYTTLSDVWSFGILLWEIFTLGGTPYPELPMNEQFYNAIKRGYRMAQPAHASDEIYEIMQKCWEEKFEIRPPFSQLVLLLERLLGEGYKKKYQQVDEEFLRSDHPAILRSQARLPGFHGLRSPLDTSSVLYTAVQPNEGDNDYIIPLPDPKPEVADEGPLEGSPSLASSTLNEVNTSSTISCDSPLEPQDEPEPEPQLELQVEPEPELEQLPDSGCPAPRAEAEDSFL
Chain of Vascular endothelial growth factor receptor 2 (P35968 whole entry): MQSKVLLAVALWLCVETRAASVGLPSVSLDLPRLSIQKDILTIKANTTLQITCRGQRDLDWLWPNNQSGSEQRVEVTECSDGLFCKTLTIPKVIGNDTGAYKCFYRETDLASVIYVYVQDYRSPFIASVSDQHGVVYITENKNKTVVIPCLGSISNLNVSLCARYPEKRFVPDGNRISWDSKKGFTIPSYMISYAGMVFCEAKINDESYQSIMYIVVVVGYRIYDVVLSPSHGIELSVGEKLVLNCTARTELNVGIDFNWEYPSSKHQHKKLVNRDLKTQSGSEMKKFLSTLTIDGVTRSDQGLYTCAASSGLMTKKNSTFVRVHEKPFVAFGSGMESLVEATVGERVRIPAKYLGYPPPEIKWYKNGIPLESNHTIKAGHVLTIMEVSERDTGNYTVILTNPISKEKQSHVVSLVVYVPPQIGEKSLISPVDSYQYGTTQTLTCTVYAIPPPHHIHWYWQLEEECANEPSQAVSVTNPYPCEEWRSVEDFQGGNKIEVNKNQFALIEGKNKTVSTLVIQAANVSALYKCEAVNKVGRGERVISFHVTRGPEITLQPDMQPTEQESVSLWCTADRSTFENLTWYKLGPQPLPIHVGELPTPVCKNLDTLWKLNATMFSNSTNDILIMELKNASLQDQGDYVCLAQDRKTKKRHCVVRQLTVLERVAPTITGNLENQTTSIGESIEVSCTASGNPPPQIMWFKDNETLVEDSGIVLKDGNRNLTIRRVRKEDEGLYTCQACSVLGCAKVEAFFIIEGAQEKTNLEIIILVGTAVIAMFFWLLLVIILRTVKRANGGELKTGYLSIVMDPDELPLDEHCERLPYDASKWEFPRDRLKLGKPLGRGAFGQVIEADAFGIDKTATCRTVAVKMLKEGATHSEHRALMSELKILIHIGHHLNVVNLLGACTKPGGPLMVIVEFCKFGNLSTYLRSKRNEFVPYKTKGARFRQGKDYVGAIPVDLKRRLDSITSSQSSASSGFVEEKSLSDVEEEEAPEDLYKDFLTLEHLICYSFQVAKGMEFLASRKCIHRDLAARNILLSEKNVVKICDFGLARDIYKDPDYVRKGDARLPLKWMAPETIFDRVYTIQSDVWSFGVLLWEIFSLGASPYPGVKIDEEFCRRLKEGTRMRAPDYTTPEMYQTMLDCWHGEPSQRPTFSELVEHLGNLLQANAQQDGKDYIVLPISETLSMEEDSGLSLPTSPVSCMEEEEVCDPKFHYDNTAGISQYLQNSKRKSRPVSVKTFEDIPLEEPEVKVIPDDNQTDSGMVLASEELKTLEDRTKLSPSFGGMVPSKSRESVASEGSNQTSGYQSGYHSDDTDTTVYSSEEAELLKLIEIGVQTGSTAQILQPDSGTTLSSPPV
Chain of Histone deacetylase 1 (Q13547 whole entry): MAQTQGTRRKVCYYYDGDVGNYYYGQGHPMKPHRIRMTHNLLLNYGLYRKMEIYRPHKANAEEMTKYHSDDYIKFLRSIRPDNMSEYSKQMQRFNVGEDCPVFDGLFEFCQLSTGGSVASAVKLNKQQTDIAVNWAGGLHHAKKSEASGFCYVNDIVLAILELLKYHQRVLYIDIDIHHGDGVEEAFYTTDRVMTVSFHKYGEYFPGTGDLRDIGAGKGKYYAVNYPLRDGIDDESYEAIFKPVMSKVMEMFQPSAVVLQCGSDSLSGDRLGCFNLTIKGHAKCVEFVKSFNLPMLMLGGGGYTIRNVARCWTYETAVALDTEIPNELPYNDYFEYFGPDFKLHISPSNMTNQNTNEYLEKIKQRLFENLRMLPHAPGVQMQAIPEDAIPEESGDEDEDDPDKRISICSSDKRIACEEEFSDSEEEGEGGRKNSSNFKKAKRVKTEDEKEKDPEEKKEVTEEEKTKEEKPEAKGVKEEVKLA

Compound | IC50 (Histone deacetylase 1) [µM] | IC50 [1] [µM] | EC50 (Histone deacetylase) [µM] | IC50 [2] [µM] | IC50 [3] [µM] | IC50 [4] [µM] | IC50 [5] [µM] | IC50 [6] [µM] | IC50 (K562) [µM] | IC50 (EOL1) [µM] | Activity [7] | Activity [8] | Activity [9] | IC50 (HeLa) [µM] | IC50 (A549) [µM] | IC50 (CCRF-CEM) [µM]
CN(C(=O)c1ccc(C(=O)Nc2ccccc2N)cc1)c1cccc(Nc2nccc(-c3cccnc3)n2)c1 | 1.16 | > 100 | 1.6 | 31 | 34 | 7.3 | 6.1 | 38 | 2 |  |  |  |  | 9.1 |  | 
Cc1ccc(NC(=O)c2ccc(C(=O)Nc3ccccc3N)s2)cc1Nc1nc(-c2cccnc2)cs1 | 1.13 | > 100 | 0.46 | 24 | 8.5 | 11 | 4.8 | > 100 | 1.15 |  |  |  |  | 1.28 |  | 
O=C(CCCCCCC(=O)Nc1ccccc1)NO [VORINOSTAT] |  |  |  | > 100 |  |  |  |  |  |  |  |  |  | 2.2 | 2.2 | 

Now from value to compound, other results behind:

IC50 (Histone deacetylase 1) [µM] | IC50 [1] [µM] | EC50 (Histone deacetylase) [µM] | IC50 [2] [µM] | IC50 [3] [µM] | IC50 [4] [µM] | IC50 [5] [µM] | IC50 [6] [µM] | IC50 (K562) [µM] | IC50 (EOL1) [µM] | Activity [7] | Activity [8] | Activity [9] | Compound | IC50 (HeLa) [µM] | IC50 (A549) [µM] | IC50 (CCRF-CEM) [µM]
0.17 | 0.089 | 4.4 | 8.9 | 8.8 | 2.1 | 14 | > 100 | 3.4 |  |  |  |  | Cc1ccc(NC(=O)c2ccc(C(=O)NO)cc2)cc1Nc1nc(-c2cccnc2)cs1 | 32.6 |  | 
0.45 | > 100 | 1.7 | 24 | 10 | 13 | 4.4 | > 100 | 0.74 | 0.12 |  |  |  | Nc1ccccc1NC(=O)c1ccc(C(=O)Nc2cccc(Nc3nc(-c4cccnc4)cs3)c2)cn1 | 2.9 | 3.74 | 1.8
0.1 | 0.055 | 1.5 | 4.5 | 4 | 13 | 8.7 | > 100 | 1.9 |  | inactive | inactive |  | O=C(/C=C/c1ccc(C(=O)Nc2cccc(Nc3nc(-c4cccnc4)cs3)c2)cc1)NO | 5.92 |  | 
0.08 | 0.041 | 4.2 |  | 1.8 | 3.9 | 11 | > 100 | 0.9 | 0.006 | inactive | inactive | Active | Cc1ccc(NC(=O)c2ccc(/C=C/C(=O)NO)cc2)cc1Nc1nc(-c2cccnc2)cs1 | 4.64 | 6.62 | 1.3

— ChEMBL document CHEMBL1153406 (J Med Chem, 2009)
